Results taken from ChEMBL document CHEMBL5360661, “Structure-Activity Relationship Study of 1H-Pyrrole-3-carbonitrile Derivatives as STING Receptor Agonists” (ACS Med Chem Lett, 2023).

What was measured:
Homo sapiens [1] = species on record: Homo sapiens; experiment: (§1) Binding affinity to recombinant human STING R232H variant C-terminal domain (139 to 378 residues) expressed in Escherichia coli BL21 (DE3) cells assessed as thermal stabilization by measuring change in melting temperature at 50 uM incubated at 25 to 95 degreeC for 45 mins by SYPRO orange dye based fluorescence analysis
[2] = target: T1, Stimulator of interferon genes protein (Homo sapiens, UniProt Q86WV6); experiment: Agonist activity at STING in PMA-differentiated wildtype human THP1-Blue ISG cells harboring IRF-inducible SEAP reporter construct incubated for 24 hrs by QUANTI-Blue assay; assay type: cell-based
Target sequence in this assay (Q86WV6 whole entry): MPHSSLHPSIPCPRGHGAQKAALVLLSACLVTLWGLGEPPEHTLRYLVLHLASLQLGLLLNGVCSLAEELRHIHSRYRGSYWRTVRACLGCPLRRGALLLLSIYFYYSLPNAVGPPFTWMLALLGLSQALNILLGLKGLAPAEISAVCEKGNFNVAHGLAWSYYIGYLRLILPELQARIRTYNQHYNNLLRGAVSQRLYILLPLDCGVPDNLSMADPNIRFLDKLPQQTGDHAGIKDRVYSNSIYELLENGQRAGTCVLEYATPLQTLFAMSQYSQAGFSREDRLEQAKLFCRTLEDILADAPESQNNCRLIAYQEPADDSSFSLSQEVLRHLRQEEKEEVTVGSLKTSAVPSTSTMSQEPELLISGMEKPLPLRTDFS

[3] = target: T2, Stimulator of interferon genes protein (Mus musculus) (UniProt Q3TBT3); experiment: as §1, with “6-His tagged mouse” for “human”, “STING” for “STING R232H variant”, “(144” for “(139”
T2 sequence (whole entry): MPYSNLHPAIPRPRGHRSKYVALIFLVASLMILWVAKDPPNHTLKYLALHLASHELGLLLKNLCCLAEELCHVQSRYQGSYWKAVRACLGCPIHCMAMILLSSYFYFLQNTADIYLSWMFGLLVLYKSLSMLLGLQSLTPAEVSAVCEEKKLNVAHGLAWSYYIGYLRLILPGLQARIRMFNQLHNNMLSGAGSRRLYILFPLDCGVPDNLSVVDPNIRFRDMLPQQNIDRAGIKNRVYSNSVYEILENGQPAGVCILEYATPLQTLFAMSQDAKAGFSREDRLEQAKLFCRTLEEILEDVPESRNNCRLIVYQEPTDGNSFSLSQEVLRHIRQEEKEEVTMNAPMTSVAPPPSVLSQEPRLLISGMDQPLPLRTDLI

[4] = Competitive inhibition of 5-FAM labelled diABZI binding to recombinant human STING R293Q variant C-terminal domain (139 to 378 residues) expressed in Escherichia coli BL21 (DE3) cells incubated for 10 mins by fluorescence polarization assay
[5] = target: T1, Stimulator of interferon genes protein; experiment: Competitive inhibition of 5-FAM labelled diABZI binding to recombinant wildtype human STING R232 variant C-terminal domain (139 to 378 residues) expressed in Escherichia coli BL21 (DE3) cells incubated for 10 mins by fluorescence polarization assay
Target sequence in this assay (Q86WV6 whole entry, looked up, stated change not applied): as the sequence (Q86WV6 whole entry) above

[6] = Competitive inhibition of 5-FAM labelled diABZI binding to recombinant human STING G230A and R293Q variant C-terminal domain (139 to 378 residues) expressed in Escherichia coli BL21 (DE3) cells incubated for 10 mins by fluorescence polarization assay
[7] = system: Stimulator of interferon genes protein (Homo sapiens), Q86WV6 [UNDEFINED MUTATION]; experiment: as §1, with “recombinant wildtype” for “recombinant”, “R232” for “R232H”
Stimulator of interferon genes protein (Homo sapiens), Q86WV6 [UNDEFINED MUTATION], sequence (Q86WV6 whole entry, looked up, stated change not applied): as the sequence (Q86WV6 whole entry) above

Homo sapiens [8] = species on record: Homo sapiens; experiment: as §1, with “R293Q” for “R232H”
Homo sapiens [9] = species on record: Homo sapiens; experiment: as §1, with “G230A and R293Q” for “R232H”
[10] = Competitive inhibition of 5-FAM labelled diABZI binding to recombinant human STING R232H variant C-terminal domain (139 to 378 residues) expressed in Escherichia coli BL21 (DE3) cells incubated for 10 mins by fluorescence polarization assay
[11] = target: T3, Stimulator of interferon genes protein (Mus musculus, UniProt Q3TBT3); experiment: Competitive inhibition of 5-FAM labelled diABZI binding to recombinant 6-his tagged mouse STING C-terminal domain (144 to 378 residues) expressed in Escherichia coli BL21 (DE3) cells incubated for 10 mins by fluorescence polarization assay
T3 sequence (Q3TBT3 whole entry): T2 sequence (whole entry)

Compound | EC50 [2] [µM] | ΔTm (Homo sapiens [1]) [°C] | other results
COc1cc(NC(=O)c2ccc(-n3ccc(C#N)c3)nn2)c(C(=O)O)cc1F | 9.75 | 4 | 
N#Cc1ccn(-c2ccc(C(=O)Nc3ccc(F)cc3C(=O)O)nn2)c1 | > 100 | 0.5 | 
N#Cc1ccn(-c2ccc(C(=O)Nc3cc(Br)c(F)cc3C(=O)O)nn2)c1 | 4.86 | 6 | 
N#Cc1ccn(-c2ccc(C(=O)Nc3cc(C#CC4CC4)c(F)cc3C(=O)O)nn2)c1 | 69.8 | -0.5 | 
N#Cc1ccn(-c2ccc(C(=O)Nc3cc(F)c(Br)cc3C(=O)O)nn2)c1 | 44.2 | 1 | 
Cc1cc(NC(=O)c2ccc(-n3ccc(C#N)c3)nn2)c(C(=O)O)cc1F | 46 | 1.5 | 
N#Cc1ccn(-c2ccc(C(=O)Nc3cc(F)ccc3C(=O)O)nn2)c1 | 48.1 | 0 | 

Continued by falling EC50 [2], values first:

EC50 [2] [µM] | Compound | ΔTm (Homo sapiens [1]) [°C] | other results
44.3 | COc1cc(C(=O)O)c(NC(=O)c2ccc(-n3ccc(C#N)c3)nn2)cc1F | 0 | 
42.2 | N#Cc1ccn(-c2ccc(C(=O)Nc3cc(F)c(Cl)cc3C(=O)O)nn2)c1 | 1.5 | 
5.17 | N#Cc1ccn(-c2ccc(C(=O)Nc3cc(Cl)c(F)cc3C(=O)O)nn2)c1 | 6.5 | 
2.53 | N#Cc1ccn(-c2ccc(C(=O)Nc3cc(Br)c(Cl)cc3C(=O)O)nn2)c1 | 8.5 | ΔTm [3]: 7 °C; IC50 [4]: 2.03 µM; IC50 [5]: 1.98 µM; IC50 [6]: 0.7 µM; ΔTm [7]: 6.5 °C; ΔTm (Homo sapiens [8]): 7.5 °C; ΔTm (Homo sapiens [9]): 13.5 °C; IC50 [10]: 3.58 µM; IC50 [11]: 4.36 µM
